The results in this text go back to patent US10921312B2 (priority 2014, dated 2021).

“Also recorded” adds a separate entry of the source.

The subject of assay [1] is iCell® neurons (human induced pluripotent stem cell-derived neurons). Format: cell-based.
The test system of assay [2] is Neuro2A cells. Format: cell-based.

Turning to GT1b, the “increase of sensitivity to neurotoxin polypeptide” value in assay [1] is reported as ~7 fold. The “increase in sensitivity to neurotoxin” value in assay [2] is “did not exhibit a comparable increase in sensitivity; also recorded: no increase in sensitivity”.
